ChEMBL document CHEMBL3297680, “Pharmacophore based virtual screening, molecular docking and biological evaluation to identify novel PDE5 inhibitors with vasodilatory activity” (Bioorg Med Chem Lett, 2014)

Tested on: Aorta
Assay: Vasodilatory activity in phenylephrine-induced pre-contracted Wistar rat aortic ring assessed as relaxation at 10 '-4 M
Type: functional
Parameters: scale not given: the % may be the effect or the level left

Structure (SMILES)	Activity [%]
CCCCC(=O)c1cc(OC)cc(OC)c1	50
CC(CC/N=C/c1ccccc1O)/N=C/c1ccccc1O (centres undefined)	50

Tested on: Aorta
Assay: Vasodilatory activity in phenylephrine-induced pre-contracted Wistar rat aortic ring assessed as relaxation at 10 '-2 M
Type: functional
Parameters: scale not given: the % may be the effect or the level left

Structure (SMILES)	Activity [%]
CCCc1nn(C)c2c(=O)[nH]c(-c3cc(S(=O)(=O)N4CCN(C)CC4)ccc3OCC)nc12	50
CCCCC(=O)c1cc(OC)cc(OC)c1	50
CCOC(=O)c1cnc2nc(N)ccc2c1O	50

Tested on: Aorta
Assay: Vasodilatory activity in phenylephrine-induced pre-contracted Wistar rat aortic ring assessed as relaxation at 10 '-6 M
Type: functional
Parameters: scale not given: the % may be the effect or the level left

Structure (SMILES)	Activity [%]
CCCCC(=O)c1cc(OC)cc(OC)c1	50

Tested on: Aorta
Assay: Vasodilatory activity in phenylephrine-induced pre-contracted Wistar rat aortic ring assessed as relaxation at 10 '-5 M
Type: functional
Parameters: scale not given: the % may be the effect or the level left

Structure (SMILES)	Activity [%]
CCCc1nn(C)c2c(=O)[nH]c(-c3cc(S(=O)(=O)N4CCN(C)CC4)ccc3OCC)nc12	50
CCCCC(=O)c1cc(OC)cc(OC)c1	50
CCOC(=O)c1cnc2nc(N)ccc2c1O	50

Biological target: cGMP-specific 3',5'-cyclic phosphodiesterase (Homo sapiens, UniProt O76074)
Assay: Inhibition of PDE5 (unknown origin)

Structure (SMILES)	IC50 [nM]
CC(C)CCc1nc2c([nH]1)C(=O)N(C)C1=N[C@@H]3CCC[C@@H]3N12	50
CCCc1nc2c([nH]1)N1C(=N[C@@H]3CCC[C@@H]31)N(C)C2=O	800
CN1C(=O)c2c(nc(Cc3ccccc3)n2Cc2ncc[nH]2)N2C1=N[C@@H]1CCC[C@@H]12	4000
CN1C(=O)c2[nH]c(Cc3ccc(-c4ccccc4)cc3)nc2N2CC3(CCCC3)N=C12	43
CCCCCCc1nc2c(n1Cc1ccccc1)C(=O)N(C)C1=N[C@@H]3CCC[C@@H]3N12	800
CN1C(=O)c2[nH]c(C(F)(F)F)nc2N2C1=N[C@@H]1CCC[C@@H]12	6200
CN1C(=O)c2c(nc(CC3CCCCC3)n2Cc2ccccc2)N2C1=N[C@@H]1CCC[C@@H]12	590
CN1C(=O)c2[nH]c(Cc3ccc(-c4ccccc4)cc3)nc2N2C1=N[C@@H]1CCC[C@@H]12	66
CN1C(=O)c2c(nc(C#Cc3ccccc3)n2Cc2ccccc2)N2C1=N[C@@H]1CCC[C@@H]12	4
CN1C(=O)c2c(nc(Cc3ccccc3)n2CCO)N2C1=N[C@@H]1CCC[C@@H]12	10000
CN1C(=O)c2c(nc(CN3CCCC3)n2Cc2ccccc2)N2C1=N[C@@H]1CCC[C@@H]12	1200
CN1C(=O)c2c(nc(Cc3ccccc3)n2CC2CCCCC2)N2C1=N[C@@H]1CCC[C@@H]12	110
CN1C(=O)c2c(nc(Cc3ccccc3)n2Cc2cccc(O)c2O)N2C1=N[C@@H]1CCC[C@@H]12	200
CN1C(=O)c2[nH]c(CN3CCCC3)nc2N2C1=N[C@@H]1CCC[C@@H]12	16000
CN1C(=O)c2[nH]c(CC3CCCCC3)nc2N2C1=N[C@@H]1CCC[C@@H]12	19
CN1C(=O)c2[nH]c(-c3ccccc3)nc2N2CC3(CCCC3)N=C12	3300
CN1C(=O)c2c(nc(CC3CCCC3)n2Cc2ccccc2)N2C1=N[C@@H]1CCC[C@@H]12	275
CN1C(=O)c2c(nc(Cc3ccc(-c4ccccc4)cc3)n2Cc2ccccc2)N2CC3(CCCC3)N=C12	200
CCN1C(=O)c2[nH]c(C)nc2N2C1=N[C@@H]1CCC[C@@H]12	100
CN1C(=O)c2c(nc(Cc3ccccc3)n2C)N2CC3(CCCC3)N=C12	4500
CN(C)Cc1nc2c(n1Cc1ccccc1)C(=O)N(C)C1=N[C@@H]3CCC[C@@H]3N12	5600
CN1C(=O)c2c(nc(CC3CC3)n2Cc2ccccc2)N2C1=N[C@@H]1CCC[C@@H]12	420
CN1C(=O)c2[nH]c(Cc3ncc[nH]3)nc2N2C1=N[C@@H]1CCC[C@@H]12	26000
Cc1nc2c(n1Cc1ccccc1)C(=O)N(C)C1=N[C@@H]3CCC[C@@H]3N12	225
CN1C(=O)c2c(nc(Cc3ccccc3)n2Cc2cccnc2)N2C1=N[C@@H]1CCC[C@@H]12	4300
CN1C(=O)c2[nH]c(Cc3ccccc3)nc2N2CC3(CCCC3)N=C12	19

More lines, now with the values ahead:

IC50 [nM]	Structure (SMILES)
13000	COCc1nc2c([nH]1)N1C(=N[C@@H]3CCC[C@@H]31)N(C)C2=O
6000	CN1C(=O)c2[nH]c(C#Cc3ccccc3)nc2N2C1=N[C@@H]1CCC[C@@H]12
2900	Cc1nc2c(n1Cc1ccccc1)N1CC3(CCCC3)N=C1N(C)C2=O
2400	Cc1nc2c([nH]1)C(=O)N(C)C1=N[C@@H]3CCC[C@@H]3N12
1500	CN1C(=O)c2c(nc(Cc3ncc[nH]3)n2Cc2ccccc2)N2C1=N[C@@H]1CCC[C@@H]12
1000	COCc1nc2c(n1Cc1ccccc1)C(=O)N(C)C1=N[C@@H]3CCC[C@@H]3N12
610	CN1C(=O)c2[nH]c(CC3CC3)nc2N2C1=N[C@@H]1CCC[C@@H]12
560	CC(C)CCc1nc2c(n1Cc1ccccc1)C(=O)N(C)C1=N[C@@H]3CCC[C@@H]3N12
510	CCCc1nc2c(n1Cc1ccccc1)C(=O)N(C)C1=N[C@@H]3CCC[C@@H]3N12
400	CN1C(=O)c2c(nc(C(F)(F)F)n2Cc2ccccc2)N2C1=N[C@@H]1CCC[C@@H]12
305	CN1C(=O)c2c(nc(Cc3ccc(-c4ccccc4)cc3)n2Cc2ccccc2)N2C1=N[C@@H]1CCC[C@@H]12
240	Cc1nc2c([nH]1)C(=O)N(C(C)C)C1=N[C@@H]3CCC[C@@H]3N12
180	CN1C(=O)c2c(nc(Cc3ccccc3)n2Cc2ccccc2)N2C1=N[C@@H]1CCC[C@@H]12
120	CN1C(=O)c2c(nc(CC3CCCC3)n2Cc2ccccc2)N2CC3(CCCC3)N=C12
120	CN1C(=O)c2c(nc(Cc3ccccc3)n2Cc2ccccc2)N2CC3(CCCC3)N=C12
34	CN1C(=O)c2[nH]c(CC3CCCC3)nc2N2C1=N[C@@H]1CCC[C@@H]12
26	CN1C(=O)c2[nH]c(CC3CCCC3)nc2N2CC3(CCCC3)N=C12
11	CN1C(=O)c2c(nc(-c3ccccc3)n2Cc2ccccc2)N2CC3(CCCC3)N=C12
10	CCCCCCc1nc2c([nH]1)C(=O)N(C)C1=N[C@@H]3CCC[C@@H]3N12
